# Assay results from US4804743A, “Proline-containing renin inhibitors” (Warner-Lambert Copmany, priority 1987, dated 1989).
# Target: T1, renin (Homo sapiens, UniProt P00797)
# T1 sequence (P00797 67-406): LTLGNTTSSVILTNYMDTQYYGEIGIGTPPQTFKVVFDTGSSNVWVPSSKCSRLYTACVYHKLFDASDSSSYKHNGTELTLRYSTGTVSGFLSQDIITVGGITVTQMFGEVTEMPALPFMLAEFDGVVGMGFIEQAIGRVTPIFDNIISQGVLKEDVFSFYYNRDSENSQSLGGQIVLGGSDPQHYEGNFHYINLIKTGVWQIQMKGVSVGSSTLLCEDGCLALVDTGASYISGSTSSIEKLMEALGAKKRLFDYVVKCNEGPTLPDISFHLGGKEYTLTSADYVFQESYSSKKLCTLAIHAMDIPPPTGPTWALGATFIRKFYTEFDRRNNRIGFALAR
# Assay: in vitro renin inhibitory activity, radioimmunoassay for angiotensin I
# Assay type: biochemical
# Settings: renin incubated two hours at 37° with substrate angiotensinogen; angiotensin I measured by radioimmunoassay
# Experimental: The effectiveness of the aforementioned compounds is determined by a test for in vitro renin inhibitory activity. This activity is determined by a standard radioimmunoassay for angiotensin I. In this assay the enzyme, renin, incubated for two hours at 37° in the presence of a substrate, angiotensinogen, generates the product, angiotensin I. Test compounds are added to the incubation mixture. Relative activity is reported as the IC50, which is the molar concentration of test compound causing a 50% inhibition of the renin activity.
substance,measurement,value
BOC-PHE-LEU-STA-GLN-PRO-OCH3 [Example 8],IC50,1100 nM
